Assay: xn = mol fraction of the nth substance listed, in the solute-free solvent

CN1CCN(C2=Nc3cc(Cl)ccc3Nc3ccccc32)CC1 + CC(C)O + O
solubility (g/100 g solution)
Conditions | x2 = 0.03225 | x2 = 0.06974 | x2 = 0.1139 | x2 = 0.1666 | x2 = 0.2307 | x2 = 0.3103 | x2 = 0.4117 | x2 = 0.5454 | x2 = 0.7297
278.15 K | 0.00624 | 0.0228 | 0.0624 | 0.135 | 0.239 | 0.393 | 0.559 | 0.783 | 0.957
283.15 K | 0.00829 | 0.029 | 0.0775 | 0.164 | 0.288 | 0.463 | 0.667 | 0.914 | 1.13
288.15 K | 0.0108 | 0.0371 | 0.096 | 0.199 | 0.35 | 0.567 | 0.781 | 1.08 | 1.32
293.15 K | 0.014 | 0.0473 | 0.117 | 0.237 | 0.417 | 0.659 | 0.933 | 1.27 | 1.54
298.15 K | 0.0182 | 0.06 | 0.144 | 0.283 | 0.493 | 0.781 | 1.09 | 1.47 | 1.78
303.15 K | 0.0233 | 0.0733 | 0.171 | 0.336 | 0.578 | 0.917 | 1.25 | 1.72 | 2.07
308.15 K | 0.0298 | 0.0919 | 0.207 | 0.399 | 0.675 | 1.06 | 1.47 | 1.96 | 2.37
313.15 K | 0.0368 | 0.113 | 0.249 | 0.472 | 0.803 | 1.22 | 1.69 | 2.24 | 2.68
318.15 K | 0.0461 | 0.137 | 0.295 | 0.552 | 0.923 | 1.42 | 1.95 | 2.58 | 3.06
323.15 K | 0.0576 | 0.166 | 0.344 | 0.642 | 1.07 | 1.63 | 2.21 | 2.92 | 3.45
328.15 K | 0.071 | 0.203 | 0.407 | 0.739 | 1.23 | 1.85 | 2.53 | 3.33 | 3.91

Nc1cccc(S(=O)(=O)c2cccc(N)c2)c1 + CC(C)O + O
solubility (g/100 g solution)
Conditions | 283.15 K | 288.15 K | 293.15 K | 298.15 K | 303.15 K | 308.15 K | 313.15 K | 318.15 K | 323.15 K | 328.15 K
x2 = 0.03225 | 0.0588 | 0.08 | 0.109 | 0.143 | 0.188 | 0.248 | 0.319 | 0.411 | 0.517 | 0.662
x2 = 0.06974 | 0.109 | 0.146 | 0.196 | 0.259 | 0.34 | 0.424 | 0.549 | 0.698 | 0.874 | 1.09
x2 = 0.1139 | 0.169 | 0.219 | 0.286 | 0.375 | 0.488 | 0.618 | 0.782 | 0.98 | 1.22 | 1.52
x2 = 0.1666 | 0.236 | 0.312 | 0.396 | 0.516 | 0.657 | 0.834 | 1.05 | 1.3 | 1.59 | 1.98
x2 = 0.2307 | 0.299 | 0.388 | 0.5 | 0.652 | 0.816 | 1.02 | 1.28 | 1.6 | 1.97 | 2.4
x2 = 0.3103 | 0.36 | 0.459 | 0.599 | 0.751 | 0.954 | 1.2 | 1.51 | 1.84 | 2.24 | 2.73
x2 = 0.4117 | 0.398 | 0.513 | 0.662 | 0.841 | 1.07 | 1.34 | 1.65 | 2.05 | 2.48 | 3.01
x2 = 0.5454 | 0.424 | 0.54 | 0.702 | 0.895 | 1.11 | 1.4 | 1.71 | 2.14 | 2.62 | 3.17
x2 = 0.7297 | 0.432 | 0.543 | 0.686 | 0.878 | 1.11 | 1.38 | 1.72 | 2.09 | 2.57 | 3.12

Nc1nccnc1Cl + CC(C)O + O
solubility (g/100 g solution)
Conditions | 278.15 K | 283.15 K | 288.15 K | 293.15 K | 298.15 K | 303.15 K | 308.15 K | 313.15 K | 318.15 K | 323.15 K
x2 = 0.03225 | 0.0425 | 0.0564 | 0.0738 | 0.092 | 0.112 | 0.133 | 0.154 | 0.178 | 0.201 | 0.227
x2 = 0.06974 | 0.0786 | 0.103 | 0.134 | 0.166 | 0.201 | 0.237 | 0.275 | 0.316 | 0.356 | 0.402
x2 = 0.1139 | 0.129 | 0.168 | 0.215 | 0.266 | 0.321 | 0.38 | 0.439 | 0.503 | 0.567 | 0.64
x2 = 0.1666 | 0.19 | 0.245 | 0.313 | 0.387 | 0.466 | 0.551 | 0.638 | 0.729 | 0.824 | 0.93
x2 = 0.2307 | 0.242 | 0.315 | 0.4 | 0.503 | 0.609 | 0.724 | 0.84 | 0.962 | 1.09 | 1.24
x2 = 0.3103 | 0.31 | 0.394 | 0.503 | 0.621 | 0.753 | 0.893 | 1.05 | 1.2 | 1.38 | 1.57
x2 = 0.4117 | 0.355 | 0.459 | 0.585 | 0.73 | 0.887 | 1.06 | 1.23 | 1.42 | 1.61 | 1.85
x2 = 0.5454 | 0.393 | 0.507 | 0.645 | 0.808 | 0.982 | 1.18 | 1.38 | 1.58 | 1.83 | 2.1
x2 = 0.7297 | 0.411 | 0.529 | 0.672 | 0.836 | 1.02 | 1.23 | 1.45 | 1.67 | 1.93 | 2.26

OCCN(CCO)c1nc(N2CCCCC2)c2nc(N(CCO)CCO)nc(N3CCCCC3)c2n1 + CC(C)O + O
solubility (g/100 g solution)
Conditions | 293.15 K | 298.15 K | 303.15 K | 308.15 K | 313.15 K | 318.15 K | 323.15 K | 328.15 K
x2 = 0.3 | 4.66 | 6.62 | 8.49 | 11.6 | 14.9 | 19.9 | 27.3 | 32.8
x2 = 0.4 | 7.42 | 9.61 | 12.4 | 15.3 | 20.2 | 25.6 | 32.3 | 39.9
x2 = 0.5 | 8.69 | 11.8 | 14.9 | 18.1 | 21.7 | 27.7 | 33.4 | 39.5
x2 = 0.6 | 9.25 | 11.6 | 14.6 | 18 | 20.8 | 26.6 | 31.7 | 37.5
x2 = 0.7 | 8.37 | 9.97 | 12.7 | 15.8 | 19.1 | 23.7 | 28.6 | 33.6
x2 = 0.8 | 6.58 | 8.26 | 10.4 | 13.2 | 15.7 | 20 | 24 | 29
x2 = 0.9 | 4.8 | 6.08 | 7.64 | 9.93 | 11.6 | 15.1 | 18.8 | 23.2

c1ccc2[nH]c(-c3cscn3)nc2c1 + CC(C)O + O
solubility (g/100 g solution)
Conditions | 283.15 K | 288.15 K | 293.15 K | 298.15 K | 303.15 K | 308.15 K | 313.15 K | 318.15 K | 323.15 K
x2 = 0.03225 | 0.00182 | 0.0023 | 0.00284 | 0.00356 | 0.0044 | 0.00539 | 0.00665 | 0.00808 | 0.00978
x2 = 0.06974 | 0.00792 | 0.00964 | 0.0123 | 0.015 | 0.0183 | 0.022 | 0.0263 | 0.0311 | 0.0368
x2 = 0.1139 | 0.0206 | 0.0251 | 0.0303 | 0.0374 | 0.0453 | 0.0539 | 0.064 | 0.0751 | 0.0876
x2 = 0.1666 | 0.0372 | 0.0456 | 0.0555 | 0.0669 | 0.0796 | 0.0936 | 0.113 | 0.131 | 0.156
x2 = 0.2307 | 0.0599 | 0.0732 | 0.0858 | 0.101 | 0.121 | 0.143 | 0.169 | 0.197 | 0.23
x2 = 0.3103 | 0.0907 | 0.109 | 0.127 | 0.148 | 0.178 | 0.204 | 0.234 | 0.27 | 0.312
x2 = 0.4117 | 0.131 | 0.154 | 0.181 | 0.213 | 0.249 | 0.287 | 0.329 | 0.379 | 0.433
x2 = 0.5454 | 0.16 | 0.192 | 0.225 | 0.262 | 0.301 | 0.347 | 0.399 | 0.459 | 0.529
x2 = 0.7297 | 0.197 | 0.23 | 0.268 | 0.309 | 0.36 | 0.413 | 0.47 | 0.534 | 0.6

S=c1[nH]ncs1 + CCCO + O
solubility (g/100 g solution)
Conditions | 278.15 K | 283.15 K | 288.15 K | 293.15 K | 298.15 K | 303.15 K | 308.15 K | 313.15 K | 318.15 K | 323.15 K
x2 = 0.1 | 1.64 | 2.13 | 2.71 | 3.49 | 4.42 | 5.59 | 6.98 | 8.6 | 10.7 | 13.4
x2 = 0.2 | 3.48 | 4.3 | 5.41 | 6.75 | 8.22 | 10 | 12.1 | 14.6 | 17.5 | 20.8
x2 = 0.3 | 5.01 | 6.25 | 7.53 | 9.11 | 10.8 | 12.9 | 15.4 | 18.1 | 21.5 | 25.1
x2 = 0.4 | 6.2 | 7.46 | 8.98 | 10.7 | 12.7 | 14.7 | 17.2 | 20.1 | 23.3 | 26.9
x2 = 0.5 | 7.02 | 8.48 | 9.9 | 11.7 | 13.5 | 15.7 | 18.1 | 20.8 | 23.9 | 27.3
x2 = 0.6 | 7.59 | 8.9 | 10.3 | 11.9 | 13.8 | 15.9 | 18.2 | 20.4 | 23.3 | 26.4
x2 = 0.7 | 7.61 | 8.94 | 10.3 | 11.8 | 13.6 | 15.4 | 17.3 | 19.7 | 22.2 | 25.2
x2 = 0.8 | 7.47 | 8.6 | 9.84 | 11.4 | 13.1 | 14.6 | 16.8 | 18.9 | 21.2 | 24.1
x2 = 0.9 | 6.73 | 8.12 | 8.99 | 10.4 | 11.8 | 13.5 | 15.3 | 17.3 | 19.6 | 22.2
